Laboratory results as given in ChEMBL document CHEMBL1201862, “PubChem BioAssay data set” (2004).
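Exposure lasted 48 hours, with cells grown in 96-well plates and compounds tested at five concentrations. GI50: concentration for 50% inhibition of growth.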 Activity calls are given as the source filed them. Cut-off read from the data, not from the text of the source: active = GI50 up to about 1.1 µM and inactive = higher.

Tests used:
Experiment in all cases: DTP human tumour cell line panel, 48 h
[1] = tested on: TK-10
[2] = tested on: A549
[3] = tested on: SF-295
[4] = tested on: DU-145
[5] = tested on: LOX IMVI
[6] = tested on: MDA-MB-231
[7] = tested on: T47D
[8] = tested on: MCF7
[9] = tested on: HCT-15
[10] = tested on: SK-MEL-5
[11] = tested on: SNB-75
[12] = tested on: HOP-62
[13] = tested on: U-251
[14] = tested on: BT-549
[15] = tested on: 786-0
[16] = tested on: MDA-N
[17] = tested on: Malme-3M
[18] = tested on: NCI-H226
[19] = tested on: HL-60

Row | SMILES | GI50 [1] | GI50 [2] | GI50 [3] | GI50 [4] | GI50 [5] | GI50 [6] | GI50 [7] | GI50 [8] | GI50 [9] [µM] | GI50 [10] | GI50 [11] | GI50 [12] | GI50 [13] | GI50 [14] | GI50 [15] | GI50 [16] | GI50 [17] | GI50 [18] | GI50 [19]
1 | CC(C)N1CCCOC(c2ccc([N+](=O)[O-])cc2)O1 (stereo unspecified) | > 100 µM (inactive) | > 100 µM (inactive) | > 100 µM (inactive) | > 100 µM (inactive) | > 100 µM (inactive) | > 100 µM (inactive) | > 100 µM (inactive) | 80.9 µM (inactive) | > 100 | 58.6 µM (inactive) | > 100 µM (inactive) | > 100 µM (inactive) | > 100 µM (inactive) | > 100 µM (inactive) | > 100 µM (inactive) | > 100 µM (inactive) | > 100 µM (inactive) | > 100 µM (inactive) | 
2 | CC(=O)N1C(=O)/C(=C\C(=O)c2ccc([N+](=O)[O-])cc2)c2ccccc21 | 13.1 µM (inactive) | > 100 µM (inactive) | > 100 µM (inactive) | 67 µM (inactive) |  | 35.3 µM (inactive) | 20.5 µM (inactive) | 21.3 µM (inactive) | 15 | 35 µM (inactive) | 21.9 µM (inactive) | 36.4 µM (inactive) | 21.1 µM (inactive) | 20.9 µM (inactive) | 15.5 µM (inactive) | 18.8 µM (inactive) | 20.7 µM (inactive) | > 100 µM (inactive) | 
3 | O=C(O)CC(NC(=O)Nc1ccc([N+](=O)[O-])cc1)C(=O)Nc1ccc([N+](=O)[O-])cc1 (stereo unspecified) | > 100 µM (inactive) | > 100 µM (inactive) | > 100 µM (inactive) | > 100 µM (inactive) | > 100 µM (inactive) | > 100 µM (inactive) | > 100 µM (inactive) | > 100 µM (inactive) | > 100 | 50.8 µM (inactive) | > 100 µM (inactive) | > 100 µM (inactive) | > 100 µM (inactive) | > 100 µM (inactive) | > 100 µM (inactive) | > 100 µM (inactive) | > 100 µM (inactive) | > 100 µM (inactive) | 
4 | CC12c3c4cccc3Oc3cc(N)cc(c31)Oc1cc(N)cc(c12)O4 | 10 µM (inactive) | 3.77 µM (inactive) | 2.53 µM (inactive) | 5.52 µM (inactive) | 6 µM (inactive) | 3.5 µM (inactive) | 9.98 µM (inactive) | 4.37 µM (inactive) | 4.14 | 3.3 µM (inactive) | 3.77 µM (inactive) | 5.75 µM (inactive) | 6.93 µM (inactive) | 3.84 µM (inactive) | 2.56 µM (inactive) | 1.31 µM (inactive) | 2.99 µM (inactive) | 5.62 µM (inactive) | 
5 | Cc1cn(CC2=NCC(C)N2)c(=O)[nH]c1=O (stereo unspecified) | > 100 µM (inactive) | > 100 µM (inactive) | > 100 µM (inactive) | > 100 µM (inactive) | > 100 µM (inactive) | > 100 µM (inactive) | > 100 µM (inactive) | > 100 µM (inactive) | > 100 | > 100 µM (inactive) | > 100 µM (inactive) | > 100 µM (inactive) | > 100 µM (inactive) | > 100 µM (inactive) | > 100 µM (inactive) | > 100 µM (inactive) | > 100 µM (inactive) | > 100 µM (inactive) | 
6 | Cn1c(=O)c2c(nc3[nH]c(=O)c(Br)cn32)n(C)c1=O | > 100 µM (inactive) | > 100 µM (inactive) | > 100 µM (inactive) | > 100 µM (inactive) | > 100 µM (inactive) | > 100 µM (inactive) | > 100 µM (inactive) |  | > 100 | > 100 µM (inactive) | > 100 µM (inactive) | > 100 µM (inactive) | > 100 µM (inactive) | > 100 µM (inactive) | > 100 µM (inactive) | > 100 µM (inactive) |  | > 100 µM (inactive) | > 100 µM (inactive)
